# Activity calls are given as the source filed them. The rule behind the calls is not given here.
# Test system: rodent carcinogenicity bioassays, tumor incidence
# Test: CCRIS carcinogenicity studies
# Summary of the method: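 Archive of carcinogenicity, mutagenicity, tumor promotion and tumor inhibition results drawn from journals, NCI reports and other sources, expert-reviewed; covers 1985-2011 and is no longer updated.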
compound,measurement,setting,value
CCc1cccc2c3c([nH]c12)C(CC)(CC(=O)O)OCC3 (centres undefined),carcinogen call,"Species: MOUSE, Strain/Sex: CD-1/FEMALE, Route: ORAL, Dose: 0;3, 9, 15 MG/KG/D IN DIET FOR 78 WK (STUDY DURATION: 78 WK), Dose: 0;3, 9, 15 MG/KG/D IN DIET FOR 78 WK (STUDY DURATION: 78 WK)",inactive; negative
same,carcinogen call,"Species: MOUSE, Strain/Sex: CD-1/MALE, Route: ORAL, Dose: 0, 3, 9, 15 MG/KG/D IN DIET FOR 78 WK (STUDY DURATION: 78 WK), Dose: 0, 3, 9, 15 MG/KG/D IN DIET FOR 78 WK (STUDY DURATION: 78 WK)",inactive; negative
same,carcinogen call,"Species: RAT, Strain/Sex: STRAIN-CD/FEMALE, Route: ORAL, Dose: 0, 3, 9, 15 MG/KG/D IN DIET FOR 104 WK (STUDY DURATION: 104 WK), Dose: 0, 3, 9, 15 MG/KG/D IN DIET FOR 104 WK (STUDY DURATION: 104 WK)",inactive; negative
same,carcinogen call,"Species: RAT, Strain/Sex: STRAIN-CD/MALE, Route: ORAL, Dose: 0, 3, 9, 15 MG/KG/D IN DIET FOR 104 WK (STUDY DURATION: 104 WK), Dose: 0, 3, 9, 15 MG/KG/D IN DIET FOR 104 WK (STUDY DURATION: 104 WK)",inactive; negative
CNc1ccc(N(CCO)CCO)cc1[N+](=O)[O-],carcinogen call,"Species: MOUSE, Strain/Sex: B6C3F1/FEMALE, Route: ORAL, Dose: 0, 3000, 6000 PPM IN DIET FOR 103 WK FOR 103 WK (STUDY DURATION: 105 WK), Dose: 0, 3000, 6000 PPM IN DIET FOR 103 WK FOR 103 WK (STUDY DURATION: 105 WK), Tumor Site: Type of Lesion: LIVER: HEPATOCELLULAR CARCINOMA, HEPATOCELLULAR ADENOMA OR CARCINOMA",active; positive
same,carcinogen call,"Species: MOUSE, Strain/Sex: B6C3F1/MALE, Route: ORAL, Dose: 0, 1500, 3000 PPM IN DIET FOR 103 WK FOR 103 WK (STUDY DURATION: 105 WK), Dose: 0, 1500, 3000 PPM IN DIET FOR 103 WK FOR 103 WK (STUDY DURATION: 105 WK), Tumor Site: Type of Lesion: LIVER: HEPATOCELLULAR ADENOMA, HEPATOCELLULAR CARCINOMA, THYROID GLAND: FOLLICULAR CELL ADENOMA",active; positive
same,carcinogen call,"Species: RAT, Strain/Sex: F344/FEMALE, Route: ORAL, Dose: 0, 1500, 3000 PPM IN DIET FOR 103 WK FOR 103 WK (STUDY DURATION: 105 WK), Dose: 0, 1500, 3000 PPM IN DIET FOR 103 WK FOR 103 WK (STUDY DURATION: 105 WK), Tumor Site: Type of Lesion: LUNG: ALVEOLAR/BRONCHIOLAR ADENOMA OR CARCINOMA, UTERUS: ENDOMETRIAL STROMAL POLYP",active; positive
same,carcinogen call,"Species: RAT, Strain/Sex: F344/MALE, Route: ORAL, Dose: 0, 1500, 3000 PPM IN DIET FOR 103 WK (STUDY DURATION: 105 WK), Dose: 0, 1500, 3000 PPM IN DIET FOR 103 WK (STUDY DURATION: 105 WK), Tumor Site: Type of Lesion: LIVER: HEPATOCELLULAR NEOPLASTIC NODULE OR CARCINOMA",equivocal
O[C@H]1C=CC=C[C@@H]1O,carcinogen call,"Species: MOUSE, Strain/Sex: SWISS/FEMALE, Route: INTRAPERITONEAL, Dose: 0, 50 UMOL ADMINISTERED AS 3 UNEQUAL DOSES (1/7, 2/7, AND 4/7 OF THE TOTAL DOSE) OVER A 2-WK PERIOD (STUDY DURATION: 28",inactive; negative
same,carcinogen call,"Species: MOUSE, Strain/Sex: SWISS/MALE, Route: INTRAPERITONEAL, Dose: 0, 50 UMOL ADMINISTERED AS 3 UNEQUAL DOSES (1/7, 2/7, AND 4/7 OF THE TOTAL DOSE) OVER A 2-WK PERIOD (STUDY DURATION: 28",inactive; negative
Clc1ccccc1,carcinogen call,"Species: MOUSE, Strain/Sex: B6C3F1/FEMALE, Route: GAVAGE, Dose: 0, 60, 120 MG/KG IN CORN OIL 5 D/WK FOR 103 WK (STUDY DURATION: 105 WK), Dose: 0, 60, 120 MG/KG IN CORN OIL 5 D/WK FOR 103 WK (STUDY DURATION: 105 WK)",inactive; negative
same,carcinogen call,"Species: MOUSE, Strain/Sex: B6C3F1/MALE, Route: GAVAGE, Dose: 0, 30, 60 MG/KG IN CORN OIL 5 D/WK FOR 103 WK (STUDY DURATION: 105 WK), Dose: 0, 30, 60 MG/KG IN CORN OIL 5 D/WK FOR 103 WK (STUDY DURATION: 105 WK)",inactive; negative
same,carcinogen call,"Species: RAT, Strain/Sex: F344/FEMALE, Route: GAVAGE, Dose: 0, 60, 120 MG/KG IN CORN OIL 5 D/WK FOR 103 WK (STUDY DURATION: 105 WK), Dose: 0, 60, 120 MG/KG IN CORN OIL 5 D/WK FOR 103 WK (STUDY DURATION: 105 WK)",inactive; negative
same,carcinogen call,"Species: RAT, Strain/Sex: F344/MALE, Route: GAVAGE, Dose: 0, 60, 120 MG/KG IN CORN OIL 5 D/WK FOR 103 WK (STUDY DURATION: 105 WK), Dose: 0, 60, 120 MG/KG IN CORN OIL 5 D/WK FOR 103 WK (STUDY DURATION: 105 WK), Tumor Site: Type of Lesion: LIVER: NEOPLASTIC NODULE, NEOPLASTIC NODULE OR CARCINOMA",equivocal
CN(N=O)C(CCC(=O)O)c1cccnc1 (centres undefined),carcinogen call,"Species: MOUSE, Strain/Sex: STRAIN-A/FEMALE, Route: INTRAPERITONEAL, Dose: 0, 2.23 MG 3/WK FOR 20 WK (STUDY DURATION: 50 WK)",inactive; negative
same,carcinogen call,"Species: MOUSE, Strain/Sex: STRAIN-A/FEMALE, Route: INTRAPERITONEAL, Dose: 0, 200 UMOL MOUSE (TOTAL DOSE) ADMINISTERED IN 0.1 ML SALINE 3/WK (TOTAL 20 INJECTIONS) (STUDY DURATION: 37 WK)",inactive; negative
same,carcinogen call,"Species: MOUSE, Strain/Sex: STRAIN-A/FEMALE, Route: INTRAPERITONEAL, Dose: 0, 200 UMOL TOTAL DOSE ADMINISTERED IN SUBDOSES 3/WK FOR 7 WK (STUDY DURATION: 37 WK)",inactive; negative
Nc1ccc(Nc2ccccc2)cc1,carcinogen call,"Species: MOUSE, Strain/Sex: B6C3F1/FEMALE, Route: ORAL, Dose: 0, 3672, 8170 PPM IN DIET, TWA, Dose: 0, 3672, 8170 PPM IN DIET, TWA",inactive; negative
same,carcinogen call,"Species: MOUSE, Strain/Sex: B6C3F1/MALE, Route: ORAL, Dose: 0, 2057, 4114 PPM IN DIET, TWA, Dose: 0, 2057, 4114 PPM IN DIET, TWA",inactive; negative
same,carcinogen call,"Species: RAT, Strain/Sex: F344/FEMALE, Route: ORAL, Dose: 0, 600, 1200 PPM IN DIET, Dose: 0, 600, 1200 PPM IN DIET",inactive; negative
same,carcinogen call,"Species: RAT, Strain/Sex: F344/MALE, Route: ORAL, Dose: 0, 600, 1200 PPM IN DIET, Dose: 0, 600, 1200 PPM IN DIET",inactive; negative
OC1c2cc3ccc4ccccc4c3nc2C2OC2C1O (centres undefined),carcinogen call,"Species: MOUSE, Strain/Sex: SWISS/FEMALE, Route: INTRAPERITONEAL, Dose: 0, 1.05 UMOL GIVEN AS 150 NMOL IN 5 µL DMSO WITHIN 24 HR OF BIRTH, 300 NMOL IN 10 µL DMSO ON D 8 OF LIFE, AND 600 NMOL I",inactive; negative
same,carcinogen call,"Species: MOUSE, Strain/Sex: SWISS/MALE, Route: INTRAPERITONEAL, Dose: 0, 1.05 UMOL GIVEN AS 150 NMOL IN 5 µL DMSO WITHIN 24 HR OF BIRTH, 300 NMOL IN 10 µL DMSO ON D 8 OF LIFE, AND 600 NMOL I",inactive; negative
CC(=O)[C@H]1CC[C@H]2[C@@H]3CCC4=CC(=O)CC[C@]4(C)[C@H]3CC[C@]12C,carcinogen call,"Species: MOUSE, Route: SUBCUTANEOUS, Tumor Site: Type of Lesion: MAMMARY GLAND, OVARIES, UTERUS, Tumor Site: Type of Lesion: MAMMARY GLAND, OVARIES, UTERUS",active; positive
CCCCC1C(=O)N(c2ccccc2)N(c2ccccc2)C1=O,carcinogen call,"Species: MOUSE, Strain/Sex: B6C3F1/FEMALE, Route: GAVAGE, Dose: 0, 150, 300 MG/KG IN CORN OIL 5 D/WK FOR 103 WK (STUDY DURATION: 107 WK), Dose: 0, 150, 300 MG/KG IN CORN OIL 5 D/WK FOR 103 WK (STUDY DURATION: 107 WK)",inactive; negative
same,carcinogen call,"Species: MOUSE, Strain/Sex: B6C3F1/MALE, Route: GAVAGE, Dose: 0, 150, 300 MG/KG IN CORN OIL 5 D/WK FOR 103 WK (STUDY DURATION: 107 WK), Dose: 0, 150, 300 MG/KG IN CORN OIL 5 D/WK FOR 103 WK (STUDY DURATION: 107 WK), Tumor Site: Type of Lesion: LIVER: HEPATOCELLULAR ADENOMA, HEPATOCELLULAR ADENOMA OR CARCINOMA",active; positive
same,carcinogen call,"Species: RAT, Strain/Sex: F344/FEMALE, Route: GAVAGE, Dose: 0, 50, 100 MG/KG IN CORN OIL 5 D/WK FOR 103 WK (STUDY DURATION: 103 WK), Dose: 0, 50, 100 MG/KG IN CORN OIL 5 D/WK FOR 103 WK (STUDY DURATION: 103 WK), Tumor Site: Type of Lesion: KIDNEY: TRANSITIONAL EPITHELIAL CARCINOMA, TUBULAR CELL ADENOMA",active; positive
same,carcinogen call,"Species: RAT, Strain/Sex: F344/MALE, Route: GAVAGE, Dose: 0, 50, 100 MG/KG IN CORN OIL 5 D/WK FOR 103 WK (STUDY DURATION: 103 WK), Dose: 0, 50, 100 MG/KG IN CORN OIL 5 D/WK FOR 103 WK (STUDY DURATION: 103 WK), Tumor Site: Type of Lesion: KIDNEY: TUBULAR CELL ADENOMA, TUBULAR CELL ADENOMA OR CARCINOMA",equivocal
Nc1cnn([C@@H]2O[C@H](CO)[C@@H](O)[C@H]2O)c(=O)n1,carcinogen call,"Species: RAT, Strain/Sex: F344/MALE, Route: INTRAPERITONEAL, Dose: 0, 2.5 MG/KG IN 0.9% SALINE 3/WK FOR 1 YR (STUDY DURATION: 1 YR)",inactive; negative
